The target in assay [1] is T1, rat B1R (Rattus norvegicus, UniProt P97583).
T1 construct: expressed in transfected cells; host or cells: CHO K1 cells
T1 sequence (P97583 1-337): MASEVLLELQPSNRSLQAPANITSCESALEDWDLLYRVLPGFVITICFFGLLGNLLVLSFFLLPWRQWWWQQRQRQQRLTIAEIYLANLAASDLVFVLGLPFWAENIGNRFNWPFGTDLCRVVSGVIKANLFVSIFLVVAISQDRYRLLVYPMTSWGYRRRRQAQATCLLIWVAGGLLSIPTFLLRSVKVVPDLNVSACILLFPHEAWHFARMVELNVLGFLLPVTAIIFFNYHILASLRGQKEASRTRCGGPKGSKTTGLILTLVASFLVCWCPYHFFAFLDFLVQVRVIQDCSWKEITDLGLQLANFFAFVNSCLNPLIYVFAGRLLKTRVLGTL
Kind of assay: Functional investigation on the bradykinin receptor 1 (B1R), FLIPR Ca2+ assay, rB1R cells. Format: cell-based. The following applies: % inhibition rat B1R at 10 μM; CHO K1 cells transfected with rat B1R; agonist Des-Arg9 bradykinin at EC80; read-out: % Inh. (rat B1R) 10 μM. The procedure: (§1) The agonistic or antagonistic action of substances can be quantified on the bradykinin receptor 1 (B1R) of the human and rat species with ectopically expressing cell lines (CHO K1 cells) and with the aid of a Ca^2+-sensitive dye (Fluo-4) using a fluorescent imaging plate reader (FLIPR). The indication in % activation is based on the Ca^2+ signal after addition of Lys-Des-Arg^9 bradykinin (0.5 nM) or Des-Arg^9 bradykinin (100 nM). Antagonists lead to a suppression of the Ca^2+ influx following administration of the agonist. The % inhibition in comparison with the maximum achievable inhibition is indicated.
(§2) The agonistic or antagonistic action of substances can be determined on the bradykinin 1 receptor (B1R) of the human and rat species with the following assay. According to this assay, the Ca^2+ inflow through the channel is quantified with the aid of a Ca^2+-sensitive dye (Fluo-4 type, Molecular Probes Europe BV, Leiden, The Netherlands) in a fluorescent imaging plate reader (FLIPR, Molecular Devices, Sunnyvale, USA).
(§3) Chinese hamster ovary cells (CHO K1 cells) which are stably transfected with the human B1R gene (hB1R cells) or the B1R gene of the rat (rB1R cells) are used. For functional investigations, these cells are plated-out onto black 96-well plates with a clear base (BD Biosciences, Heidelberg, Germany or Greiner, Frickenhausen, Germany) in a density of 20,000-35,000 cells/well. Overnight, the cells are incubated at 37° C. and 5% CO2 in culture medium (hB1R cells: Nutrient Mixture Ham's F12, Gibco Invitrogen GmbH, Karlsruhe, Germany or DMEM, Sigma-Aldrich, Taufkirchen, Germany; rB1R cells: D-MEM/F12, Gibco Invitrogen, Karlsruhe, Germany) with 10 vol. % FBS (foetal bovine serum, Gibco Invitrogen GmbH, Karlsruhe, Germany or PAN Biotech GmbH, Aidenbach, Germany). On the following day the cells are loaded with 2.13 μM Fluo-4 (Molecular Probes Europe BV, Leiden, The Netherlands) in HBSS buffer (Hank's buffered saline solution, Gibco Invitrogen GmbH, Karlsruhe, Germany) with 2.5 mM probenecid (Sigma-Aldrich, Taufkirchen, Germany) and 10 mM HEPES (Sigma-Aldrich, Taufkirchen, Germany) for 60 min at 37° C. The plates are the washed twice with HBSS buffer, and HBSS buffer which additionally contains 0.1% BSA (bovine serum albumin; Sigma-Aldrich, Taufkirchen, Germany), 5.6 mM glucose and 0.05% gelatine (Merck KGaA, Darmstadt, Germany) is added. After a further incubation of 20 minutes at room temperature, the plates are inserted into the FLIPR for Ca^2+ measurement. Alternatively they are washed with buffer A (15 mM HEPES, 80 mM NaCl, 5 mM KCl, 1.2 mM CaCl2, 0.7 mM MgSO4, 2 g/l glucose, 2.5 mM probenecid) and loaded with buffer A with added 2.5 μM Fluo-4 and 0.025% Pluronic F127 (Sigma-Aldrich, Taufkirchen, Germany). The cells are then washed twice with buffer A and incubated for 30 minutes with buffer A, which additionally contains 0.05% BSA and 0.05% gelatine, at room temperature and then used for Ca^2+ measurement in the FLIPR.
(§4) The Ca^2+-dependent fluorescence is measured here before and after addition of substances (λex=488 nm, λem=540 nm). The quantification is performed by measuring the highest fluorescence intensity (FC, fluorescence counts) over time.
(§5) The FLIPR protocol comprises two additions of substance. Test substances (10 μM) are first pipetted onto the cells and the Ca^2+ inflow is compared with the control (hB1R: Lys-Des-Arg^9 bradykinin>=50 nM; rB1R: Des-Arg^9 bradykinin 10 μM). The value in % activation based on the Ca^2+ signal after addition of Lys-Des-Arg^9 bradykinin (>=50 nM) or Des-Arg^9 bradykinin (10 μM) is obtained therefrom. After incubation for 10-20 minutes, Lys-Des-Arg^9 bradykinin (hB1R) or Des-Arg^9 bradykinin (rB1R) is applied in the EC80 concentration and the inflow of Ca^2+ is likewise determined. Antagonists lead to a suppression of the Ca^2+ inflow. The % inhibition in comparison with the maximum achievable inhibition is calculated. […]

Assay [2] concerns the target T2, human B1R (Homo sapiens, UniProt P46663).
T2 construct: expressed in transfected cells; host or cells: CHO K1 cells
T2 sequence (P46663 1-353): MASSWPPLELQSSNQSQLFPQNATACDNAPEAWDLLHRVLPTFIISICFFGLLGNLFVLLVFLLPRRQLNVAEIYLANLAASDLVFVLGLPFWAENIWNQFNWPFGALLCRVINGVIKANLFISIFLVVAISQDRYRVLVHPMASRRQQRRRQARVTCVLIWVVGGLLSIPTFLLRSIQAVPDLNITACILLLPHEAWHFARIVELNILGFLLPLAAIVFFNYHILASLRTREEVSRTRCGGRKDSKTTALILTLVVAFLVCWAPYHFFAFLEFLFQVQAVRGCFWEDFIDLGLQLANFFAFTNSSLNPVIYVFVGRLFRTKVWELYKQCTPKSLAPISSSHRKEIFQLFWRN
The assay can be described thus: Functional investigation on the bradykinin receptor 1 (B1R), FLIPR Ca2+ assay, hB1R cells. Format: cell-based. To be noted: % inhibition human B1R at 10 μM; CHO K1 cells transfected with human B1R; agonist Lys-Des-Arg9 bradykinin at EC80; read-out: % Inh. (hum. B1R) 10 μM. The procedure: as §1, §2, §3, §4, §5

`COc1cc(C)c(S(=O)(=O)N2CCCC[C@H]2COCC(=O)N2CCC3(CC2)CCC(c2ccccc2)(N(C)C)CC3)c(C)c1` [Compound 2, 1-(9-(Dimethylamino)-9-phenyl-3-azaspiro[5.5]undecan-3-yl)-2-(((S)-1-(4-methoxy-2,6-dimethylphenylsulfonyl)piperidin-2-yl)methoxy)ethanone]: the inhibition at 10 µM was 94% in assay [1] and 100% in assay [2].
Turning to `COc1cc(C)c(S(=O)(=O)N(CCOCC(=O)N2CCC3(CC2)CCC(c2ccccc2)(N(C)C)CC3)C2CC2)c(C)c1` [Compound 3, N-Cyclopropyl-N-(2-(2-(9-(dimethylamino)-9-phenyl-3-azaspiro[5.5]undecan-3-yl)-2-oxoethoxy)ethyl)-4-methoxy-2,6-dimethylbenzenesulfonamide], the inhibition at 10 µM in assay [1] is 102%; in assay [2] it was 100%.
With `O=C(CC(NS(=O)(=O)c1ccc2ccccc2c1)c1ccccc1)N1CCC2(CC1)CCC(c1cccc(F)c1)(N1CCCC1)CC2` (centres unmarked) [CC-08, N-[3-[3-(3-Fluorophenyl)-3-pyrrolidin-1-yl-9-azaspiro[5.5]undecan-9-yl]-3-oxo-1-phenyl-propyl]-naphthalene-2-sulfonic acid amide], the values for the inhibition at 10 µM in assay [1] and in assay [2] were 96% and 81%, respectively.
For the molecule `COc1cc(C)c(S(=O)(=O)N(CCOCC(=O)N2CCC3(CC2)CCC(c2cccs2)(N(C)C)CC3)C2CC2)c(C)c1` [CC-12, N-Cyclopropyl-N-[2-[2-(3-dimethylamino-3-thiophen-2-yl-9-azaspiro[5.5]undecan-9-yl)-2-oxo-ethoxy]-ethyl]-4-methoxy-2,6-dimethyl-benzenesulfonic acid amide], the inhibition at 10 µM in assay [1] was 97%; in assay [2] it was 100%.
Regarding `Cc1cccc(Cl)c1S(=O)(=O)N(CCOCC(=O)N1CCC2(CC1)CCC(c1cccs1)(N(C)C)CC2)C1CC1` [CC-09, 2-Chloro-N-cyclopropyl-N-[2-[2-(3-dimethylamino-3-thiophen-2-yl-9-azaspiro[5.5]undecan-9-yl)-2-oxo-ethoxy]-ethyl]-6-methyl-benzenesulfonic acid amide], the inhibition at 10 µM worked out at 97% in assay [1] and 100% in assay [2].
The matching figures for `COc1cc(C)c(S(=O)(=O)N2CCCCC2COCC(=O)N2CCC3(CC2)CCC(c2cccs2)(N(C)C)CC3)c(C)c1` (centres unmarked) [CC-11, 1-(3-Dimethylamino-3-thiophen-2-yl-9-azaspiro[5.5]undecan-9-yl)-2-[[1-[(4-rnethoxy-2,6-dimethyl-phenyl)sulfonyl]-piperidin-2-yl]-methoxy]-ethanone]: 98% and 100%.
For `COc1cc(C)c(S(=O)(=O)N(CCOCC(=O)N2CCC3(CC2)CCC(c2cccc(F)c2)(N2CCCC2)CC3)C2CC2)c(C)c1` [CC-04, N-Cyclopropyl-N-[2-[2-[3-(3-fluorophenyl)-3-pyrrolidin-1-yl-9-azaspiro[5.5]undecan-9-yl]-2-oxo-ethoxy]-ethyl]-4-methoxy-2,6-dimethyl-benzenesulfonic acid amide], the figures for the inhibition at 10 µM in assay [1] and in assay [2] were 98% and 100%, respectively.
The matching figures for `Cc1cc(S(=O)(=O)N2CCCCC2CCC(=O)N2CCC3(CC2)CCC(c2cccc(F)c2)(N2CCCC2)CC3)c(C)cc1Cl` (centres unmarked) [CC-07, 3-[1-[(4-Chloro-2,5-dimethyl-phenyl)sulfonyl]-piperidin-2-yl]-1-[3-(3-fluorophenyl)-3-pyrrolidin-1-yl-9-azaspiro[5.5]undecan-9-yl]-propan-1-one]: 86% and 99%.
The matching figures for `COc1cc(C)c(S(=O)(=O)N2CCCCC2COCC(=O)N2CCC3(CC2)CCC(c2cccc(F)c2)(N2CCCC2)CC3)c(C)c1` (centres unmarked) [CC-03, 1-[3-(3-Fluorophenyl)-3-pyrrolidin-1-yl-9-azaspiro[5.5]undecan-9-yl]-2-[[1-[(4-methoxy-2,6-dimethyl-phenyl)sulfonyl]-piperidin-2-yl]-methoxy]-ethanone]: 99% and 100%.
Regarding `CN(C)C1(c2cccs2)CCC2(CCN(C(=O)CC3CCCCN3S(=O)(=O)c3cccc(C(F)(F)F)c3)CC2)CC1` (centres unmarked) [CC-10, 1-(3-Dimethylamino-3-thiophen-2-yl-9-azaspiro[5.5]undecan-9-yl)-2-[1-[[3-(trifluoromethyl)phenyl]sulfonyl]-piperidin-2-yl]-ethanone], the inhibition at 10 µM in assay [1] was found to be 79%; in assay [2] it was 84%.
The matching figures for `COc1cc(C)c(S(=O)(=O)N2C=CNC(=O)[C@H]2CC(=O)N2CCC3(CC2)CCC(c2ccccc2)(N(C)C)CC3)c(C)c1` [Compound 10, (3R)-3-(2-(9-(Dimethylamino)-9-phenyl-3-azaspiro[5.5]undecan-3-yl)-2-oxoethyl)-4-(4-methoxy-2,6-dimethylphenylsulfonyl)-3,4-dihydropyrazin-2(1H)-one]: 92% and 100%.
As for `Cc1cccc(Cl)c1S(=O)(=O)N1CCCCC1COCC(=O)N1CCC2(CC1)CCC(c1cccc(F)c1)(N1CCCC1)CC2` (centres unmarked) [CC-05, 2-[[1-[(2-Chloro-6-methyl-phenyl)sulfonyl]-piperidin-2-yl]-methoxy]-1-[3-(3-fluorophenyl)-3-pyrrolidin-1-yl-9-azaspiro[5.5]undecan-9-yl]-ethanone], the inhibition at 10 µM in assay [1] was determined as 98%; in assay [2], 100%.
As for `COc1cc(C)c(S(=O)(=O)N2CCCCC2CCCC(=O)N2CCC3(CC2)CCC(c2cccs2)(N(C)C)CC3)c(C)c1` (centres unmarked) [CC-16, 1-(3-Dimethylamino-3-thiophen-2-yl-9-azaspiro[5.5]undecan-9-yl)-4-[1-[(4-methoxy-2,6-dimethyl-phenyl)sulfonyl]-piperidin-2-yl]-butan-1-one], the inhibition at 10 µM in assay [1] amounted to 102%; in assay [2], 99%.

These data come from US8278319B2, “Substituted spiroamine compounds” (Gruenenthal GmbH, priority 2008, dated 2012).
